Laboratory results from paper PMC5909342, “Increasing the bioactive space of peptide macrocycles by thioamide substitution” (Chemical Science, 2018).
Like-named read-outs stand apart in the source and are kept apart here. Each block holds one molecule with its values, some of them ahead of it.

Experiments:
[1] = test system: αvβ5 expressing MDA-MB-231 breast cancer cells; assay: Competitive cell-adhesion inhibition assay to vitronectin, MDA-MB-231; type: cell-based, human; settings: n = 5 ± SEM, read-out: In cellulo IC50 MDA-MB-231
Procedure: To validate our in vitro data and determine the efficacy of the peptides against the pro-angiogenic integrins in a complex cellular milieu, we subjected the peptides to a competitive cell-adhesion assay (Table 1) utilizing MDA-MB-231 human breast cancer cells expressing αvβ5 integrins, and U-87 MG human glioblastoma cells expressing αvβ3, αvβ5 and α5β1 integrins.[27] […] On the other hand, we observed a remarkable correlation between the in vitro affinity of the thioamidated peptides against the purified integrins and their efficacy in cellulo (αvβ5 with MDA-MB-231, and αvβ3 and αvβ5 with U-87 MG). […]
(§1) Cell adhesion inhibition assay […]
(§2) incubated with 0.5% crystal violet for 15 min. Cells were then washed thoroughly with PBS buffer to remove excess of crystal violet. Finally dye was eluted out and dissolved using DMSO and quantification was done at 570 nm. […]
(§3) was dispensed and 5% FBS containing media was added. […]

[2] = test system: αvβ3, αvβ5 and α5β1 expressing U-87 MG glioblastoma cells; assay: Competitive cell-adhesion inhibition assay to vitronectin, U-87 MG; type: cell-based, human; settings: n = 5 ± SEM, read-out: In cellulo IC50 U-87 MG
Procedure: To validate our in vitro data and determine the efficacy of the peptides against the pro-angiogenic integrins in a complex cellular milieu, we subjected the peptides to a competitive cell-adhesion assay (Table 1) utilizing MDA-MB-231 human breast cancer cells expressing αvβ5 integrins, and U-87 MG human glioblastoma cells expressing αvβ3, αvβ5 and α5β1 integrins.[27] […]
as §1, §2, §3

αvβ5 integrin = molecular target: T1, αvβ5 integrin (Homo sapiens, UniProt P06756+P18084); assay: Competitive solid-phase integrin binding assay (ELISA), vitronectin-αvβ5; settings: purified integrin, n = 5 ± SEM, read-out: In vitro IC50 αvβ5
T1 construct: purchased Millipore
Procedure: (§4) The initial structure was obtained by following a simulated annealing protocol. […] For the structure of 7-11 (including 9a-9d) explicit solvent box of H2O was used with periodic boundary conditions. A 2 ns restrained molecular dynamics run was then performed. The average conformation over the dynamics run was considered to be the final structure. Competitive solid-phase integrin binding assay The activity of peptide as integrin antagonist was assessed using solid phase integrin binding assay. Following buffers were prepared freshly. […] 96-well plate reader at 492 nm. […] Post-blocking and washing peptides were mixed with biotinylated vitronectin and this mixure was then incubated with coated plates for 2h at room temperature. […] After washing S6

α5β1 integrin = molecular target: T2, α5β1 integrin (Homo sapiens, UniProt P05556+P08648); assay: Competitive solid-phase integrin binding assay (ELISA), fibronectin-α5β1; settings: purified integrin, n = 5 ± SEM, read-out: In vitro IC50 α5β1
T2 construct: purchased Millipore
Procedure: as §4, with “Binding” for “Post-blocking and washing peptides were mixed with biotinylated vitronectin and this mixure”, “visualized using TMB substrate.” for “then incubated with coated plates for 2h at room temperature.”, “S7” for “After washing S6”

αvβ3 integrin = molecular target: T3, αvβ3 integrin (Homo sapiens, UniProt P05106+P06756); assay: Competitive solid-phase integrin binding assay (ELISA), vitronectin-αvβ3
T3 construct: purchased Millipore
Procedure: as §4

αIIbβ3 integrin = molecular target: T4, αIIbβ3 integrin (Homo sapiens, UniProt P05106+P08514); assay: Competitive solid-phase integrin binding assay (ELISA), fibrinogen-αIIbβ3; settings: purified integrin, n = 5 ± SEM, read-out: In vitro IC50 αIIbβ3
T4 construct: purchased Millipore
Procedure: The inhibitory potency of the peptides to block the association between the extracellular matrix and the integrins overexpressed on cell-surfaces was determined using an in vitro competitive solid phase binding assay.[25] We assessed the affinity of these peptides against the pro-angiogenic αvβ3, αvβ5 and α5β1 integrins, and their selectivity against their αIIbβ3 integrin, which plays an important role in platelet aggregation (Table 1).[26]
integrin was incubated for 1h at room temperature. After washing 1:250 diluted CD41b
antibody was incubated for 1h at room temperature. Anti-mouse IgG-peroxidase antibody
was used as secondary antibody. Binding was visualized using TMB substrate. […]

[3] = Ex vivo serum stability assay; settings: human serum ex vivo
[4] = competitive ELISA, purified integrin, n = 5 ± SEM, read-out: In vitro IC50 αvβ3
[5] = from experimental IC50, read-out: pIC50 against αvβ3, Table S22 (converted)

SMILES: CC(C)[C@@H]1NC(=O)[C@H](Cc2ccccc2)NC(=O)[C@@H](CC(=O)O)NC(=O)CNC(=O)[C@H](CCCNC(=N)N)NC1=S [Compound 9a]
IC50 [1]: 0.011 ± 0.009 µM
IC50 [2]: 0.04 ± 0.028 µM

SMILES: CC(C)[C@@H]1NC(=O)[C@@H](Cc2ccccc2)NC(=S)[C@H](CC(=O)O)NC(=O)CNC(=O)[C@H](CCCNC(=N)N)NC1=O [Compound 11]
IC50 (αvβ5 integrin): 0.0013 ± 0.001 µM
IC50 [1]: 0.0042 ± 0.004 µM
IC50 (α5β1 integrin): 0.062 ± 0.045 µM
IC50 [2]: 0.096 ± 0.077 µM
IC50 (αvβ3 integrin; [4]): 0.072 ± 0.063 µM
IC50 (αIIbβ3 integrin): > 100 µM
Fraction of peptide intact at 72 h [3]: 1/4

IC50 (αvβ5 integrin): > 10 µM
IC50 [1]: > 100 µM
IC50 (α5β1 integrin): 0.461 ± 0.246 µM
IC50 [2]: > 100 µM
IC50 (αvβ3 integrin; [4]): > 100 µM
IC50 (αIIbβ3 integrin): > 100 µM
SMILES: CC(C)[C@@H]1NC(=O)[C@H](Cc2ccccc2)NC(=S)[C@H](CC(=O)O)NC(=O)CNC(=O)[C@@H](CCCNC(=N)N)NC1=O [Compound 9c]

SMILES: CC(C)[C@H]1NC(=O)[C@H](Cc2ccccc2)NC(=O)[C@H](CC(=O)O)NC(=S)CNC(=O)[C@H](CCCNC(=N)N)NC1=O [Compound 9d]
IC50 (αvβ5 integrin): > 10 µM
IC50 [1]: > 100 µM
IC50 (α5β1 integrin): 0.104 ± 0.095 µM
IC50 [2]: > 100 µM
IC50 (αvβ3 integrin; [4]): 0.584 ± 0.504 µM
IC50 (αIIbβ3 integrin): > 100 µM

SMILES: CC(C)[C@@H]1NC(=O)[C@@H](Cc2ccccc2)NC(=O)[C@H](CC(=O)O)NC(=O)CNC(=S)[C@H](CCCNC(=N)N)NC1=O [Compound 9]
IC50 (αvβ5 integrin): > 10 µM
IC50 [1]: > 100 µM
IC50 (α5β1 integrin): 0.053 ± 0.042 µM
IC50 [2]: > 100 µM
IC50 (αvβ3 integrin; [4]): > 100 µM
IC50 (αvβ3 integrin; [5]): > 100 µM
IC50 (αIIbβ3 integrin): > 10 µM

SMILES: CC(C)[C@@H]1NC(=S)[C@@H](Cc2ccccc2)NC(=O)[C@H](CC(=O)O)NC(=O)CNC(=O)[C@H](CCCNC(=N)N)NC1=O [Compound 7]
IC50 (αvβ5 integrin): 0.0007 ± 0.0002 µM
IC50 [1]: 0.004 ± 0.002 µM
IC50 (α5β1 integrin): 0.0013 ± 0.0006 µM
IC50 [2]: 0.326 ± 0.097 µM
IC50 (αvβ3 integrin; [4]): 0.372 ± 0.052 µM
IC50 (αIIbβ3 integrin): > 10 µM

SMILES: CC(C)[C@@H]1NC(=S)[C@H](Cc2ccccc2)NC(=O)[C@H](CC(=O)O)NC(=O)CNC(=O)[C@H](CCCNC(=N)N)NC1=O [Compound 9b]
IC50 (αvβ5 integrin): 0.0016 ± 0.0003 µM
IC50 [1]: 0.001 ± 0.0001 µM
IC50 (α5β1 integrin): 0.002 ± 0.0004 µM
IC50 [2]: 0.0016 ± 0.0006 µM
Fold difference in αvβ3 affinity (αvβ3 integrin; 9b versus 7 (differ only in chirality of Phe)): > 10^3 fold
Fold enhancement of affinity and efficacy in comparison to 9 (αvβ3 integrin; 9b versus 9, pro-angiogenic integrins): ~10^5 fold
IC50 (αvβ3 integrin; [4]): 0.0002 ± 0.0001 µM
IC50 (αvβ3 integrin; [5]): 0.0002 µM
IC50 (αIIbβ3 integrin): > 100 µM
Fraction of peptide intact at 72 h [3]: 1/4

SMILES: CC(C)[C@@H]1NC(=O)[C@@H](Cc2ccccc2)NC(=O)[C@H](CC(=O)O)NC(=S)CNC(=O)[C@H](CCCNC(=N)N)NC1=O [Compound 10]
IC50 (αvβ5 integrin): > 100 µM
IC50 [1]: > 100 µM
IC50 (α5β1 integrin): > 100 µM
IC50 [2]: > 100 µM
IC50 (αvβ3 integrin; [4]): 0.252 ± 0.2 µM
IC50 (αIIbβ3 integrin): > 100 µM

SMILES: CC(C)[C@@H]1NC(=O)[C@H](Cc2ccccc2)NC(=O)[C@H](CC(=O)O)NC(=O)CNC(=O)[C@H](CCCNC(=N)N)NC1=O [Compound 12, cyclo(RGDFV)]
IC50 [1]: > 100 µM
IC50 [2]: > 100 µM
